Measurements from the NIST ThermoML archive (doi:10.1021/je0342320).
± gives the expanded uncertainty stated by the source.

Assay: xn = mol fraction of the nth substance listed
Conditions: Liquid, Vibrating tube method

Compound CCCCCCCCCC [decane] + COC(=O)OC has a mass density (318.15 K, 40000 kPa, x2 = 0.0676) of 748.36 ± 0.64 kg/m3, a mass density (318.15 K, 40000 kPa, x2 = 0.2303) of 774.2 ± 0.62 kg/m3 and a mass density (318.15 K, 40000 kPa, x2 = 0.2934) of 786.19 ± 0.61 kg/m3. The mass density (318.15 K, 40000 kPa, x2 = 0.4055) was 809.98 ± 0.59 kg/m3, the mass density (318.15 K, 40000 kPa, x2 = 0.502) was 834.42 ± 0.58 kg/m3 and the mass density (318.15 K, 40000 kPa, x2 = 0.5476) was 847.53 ± 0.58 kg/m3. It also gave a mass density (318.15 K, 40000 kPa, x2 = 0.665) of 886.65 ± 0.56 kg/m3, a mass density (318.15 K, 40000 kPa, x2 = 0.7101) of 904.62 ± 0.56 kg/m3 and a mass density (318.15 K, 40000 kPa, x2 = 0.7993) of 944 ± 0.56 kg/m3. It also gave a mass density (318.15 K, 40000 kPa, x2 = 0.9062) of 1004.15 ± 0.58 kg/m3, a mass density (323.15 K, 100 kPa, x2 = 0.0676) of 714.71 ± 0.44 kg/m3 and a mass density (323.15 K, 100 kPa, x2 = 0.2303) of 738.81 ± 0.45 kg/m3. For the same compound, the mass density (323.15 K, 100 kPa, x2 = 0.2934) was 749.94 ± 0.46 kg/m3, the mass density (323.15 K, 100 kPa, x2 = 0.4055) was 772.41 ± 0.47 kg/m3 and the mass density (323.15 K, 100 kPa, x2 = 0.502) was 795.68 ± 0.48 kg/m3. The mass density (323.15 K, 100 kPa, x2 = 0.5476) was 808.16 ± 0.49 kg/m3, the mass density (323.15 K, 100 kPa, x2 = 0.665) was 845.86 ± 0.51 kg/m3 and the mass density (323.15 K, 100 kPa, x2 = 0.7101) was 862.69 ± 0.52 kg/m3. For the same compound, the mass density (323.15 K, 100 kPa, x2 = 0.7993) was 901.72 ± 0.54 kg/m3, the mass density (323.15 K, 100 kPa, x2 = 0.9062) was 960.79 ± 0.57 kg/m3 and the mass density (323.15 K, 10000 kPa, x2 = 0.0676) was 723.36 ± 0.48 kg/m3. It also gave a mass density (323.15 K, 10000 kPa, x2 = 0.2303) of 747.9 ± 0.48 kg/m3, a mass density (323.15 K, 10000 kPa, x2 = 0.2934) of 759.3 ± 0.49 kg/m3 and a mass density (323.15 K, 10000 kPa, x2 = 0.4055) of 782.1 ± 0.49 kg/m3. It also gave a mass density (323.15 K, 10000 kPa, x2 = 0.502) of 805.66 ± 0.5 kg/m3, a mass density (323.15 K, 10000 kPa, x2 = 0.5476) of 818.26 ± 0.51 kg/m3 and a mass density (323.15 K, 10000 kPa, x2 = 0.665) of 856.25 ± 0.52 kg/m3. For the same compound, the mass density (323.15 K, 10000 kPa, x2 = 0.7101) was 873.27 ± 0.53 kg/m3, the mass density (323.15 K, 10000 kPa, x2 = 0.7993) was 912.4 ± 0.54 kg/m3 and the mass density (323.15 K, 10000 kPa, x2 = 0.9062) was 971.62 ± 0.57 kg/m3. For the same compound, the mass density (323.15 K, 20000 kPa, x2 = 0.0676) was 731.25 ± 0.53 kg/m3, the mass density (323.15 K, 20000 kPa, x2 = 0.2303) was 756.2 ± 0.53 kg/m3 and the mass density (323.15 K, 20000 kPa, x2 = 0.2934) was 767.8 ± 0.53 kg/m3. It also gave a mass density (323.15 K, 20000 kPa, x2 = 0.4055) of 790.9 ± 0.53 kg/m3, a mass density (323.15 K, 20000 kPa, x2 = 0.502) of 814.72 ± 0.53 kg/m3 and a mass density (323.15 K, 20000 kPa, x2 = 0.5476) of 827.41 ± 0.53 kg/m3. For the same compound, the mass density (323.15 K, 20000 kPa, x2 = 0.665) was 865.73 ± 0.54 kg/m3, the mass density (323.15 K, 20000 kPa, x2 = 0.7101) was 882.95 ± 0.54 kg/m3 and the mass density (323.15 K, 20000 kPa, x2 = 0.7993) was 922.17 ± 0.55 kg/m3. The mass density (323.15 K, 20000 kPa, x2 = 0.9062) was 981.53 ± 0.58 kg/m3, the mass density (323.15 K, 30000 kPa, x2 = 0.0676) was 738.46 ± 0.58 kg/m3 and the mass density (323.15 K, 30000 kPa, x2 = 0.2303) was 763.83 ± 0.57 kg/m3. It also gave a mass density (323.15 K, 30000 kPa, x2 = 0.2934) of 775.53 ± 0.57 kg/m3, a mass density (323.15 K, 30000 kPa, x2 = 0.4055) of 798.87 ± 0.56 kg/m3 and a mass density (323.15 K, 30000 kPa, x2 = 0.502) of 822.91 ± 0.56 kg/m3. It also gave a mass density (323.15 K, 30000 kPa, x2 = 0.5476) of 835.74 ± 0.55 kg/m3, a mass density (323.15 K, 30000 kPa, x2 = 0.665) of 874.34 ± 0.55 kg/m3 and a mass density (323.15 K, 30000 kPa, x2 = 0.7101) of 891.78 ± 0.55 kg/m3. For the same compound, the mass density (323.15 K, 30000 kPa, x2 = 0.7993) was 931.08 ± 0.56 kg/m3, the mass density (323.15 K, 30000 kPa, x2 = 0.9062) was 990.6 ± 0.58 kg/m3 and the mass density (323.15 K, 40000 kPa, x2 = 0.0676) was 745.15 ± 0.64 kg/m3. The mass density (323.15 K, 40000 kPa, x2 = 0.2303) was 770.85 ± 0.62 kg/m3, the mass density (323.15 K, 40000 kPa, x2 = 0.2934) was 782.66 ± 0.61 kg/m3 and the mass density (323.15 K, 40000 kPa, x2 = 0.4055) was 806.24 ± 0.6 kg/m3. For the same compound, the mass density (323.15 K, 40000 kPa, x2 = 0.502) was 830.5 ± 0.58 kg/m3, the mass density (323.15 K, 40000 kPa, x2 = 0.5476) was 843.43 ± 0.58 kg/m3 and the mass density (323.15 K, 40000 kPa, x2 = 0.665) was 882.27 ± 0.57 kg/m3. For the same compound, the mass density (323.15 K, 40000 kPa, x2 = 0.7101) was 899.97 ± 0.56 kg/m3, the mass density (323.15 K, 40000 kPa, x2 = 0.7993) was 939.25 ± 0.56 kg/m3 and the mass density (328.15 K, 100 kPa, x2 = 0.0676) was 710.69 ± 0.44 kg/m3. The mass density (328.15 K, 100 kPa, x2 = 0.2303) was 734.47 ± 0.45 kg/m3, the mass density (328.15 K, 100 kPa, x2 = 0.2934) was 745.53 ± 0.46 kg/m3 and the mass density (328.15 K, 100 kPa, x2 = 0.4055) was 767.74 ± 0.47 kg/m3. For the same compound, the mass density (328.15 K, 100 kPa, x2 = 0.502) was 790.73 ± 0.48 kg/m3, the mass density (328.15 K, 100 kPa, x2 = 0.5476) was 803.07 ± 0.49 kg/m3 and the mass density (328.15 K, 100 kPa, x2 = 0.665) was 840.35 ± 0.51 kg/m3. The mass density (328.15 K, 100 kPa, x2 = 0.7101) was 857.01 ± 0.51 kg/m3, the mass density (328.15 K, 100 kPa, x2 = 0.7993) was 895.68 ± 0.53 kg/m3 and the mass density (328.15 K, 100 kPa, x2 = 0.9062) was 954.3 ± 0.56 kg/m3. The mass density (328.15 K, 10000 kPa, x2 = 0.0676) was 719.66 ± 0.48 kg/m3, the mass density (328.15 K, 10000 kPa, x2 = 0.2303) was 743.93 ± 0.48 kg/m3 and the mass density (328.15 K, 10000 kPa, x2 = 0.2934) was 755.2 ± 0.49 kg/m3. The mass density (328.15 K, 10000 kPa, x2 = 0.4055) was 777.74 ± 0.49 kg/m3, the mass density (328.15 K, 10000 kPa, x2 = 0.502) was 801.04 ± 0.5 kg/m3 and the mass density (328.15 K, 10000 kPa, x2 = 0.5476) was 813.56 ± 0.51 kg/m3. The mass density (328.15 K, 10000 kPa, x2 = 0.665) was 851.18 ± 0.52 kg/m3, the mass density (328.15 K, 10000 kPa, x2 = 0.7101) was 867.93 ± 0.53 kg/m3 and the mass density (328.15 K, 10000 kPa, x2 = 0.7993) was 906.86 ± 0.54 kg/m3. The mass density (328.15 K, 10000 kPa, x2 = 0.9062) was 965.6 ± 0.57 kg/m3, the mass density (328.15 K, 20000 kPa, x2 = 0.0676) was 727.74 ± 0.53 kg/m3 and the mass density (328.15 K, 20000 kPa, x2 = 0.2303) was 752.49 ± 0.53 kg/m3. For the same compound, the mass density (328.15 K, 20000 kPa, x2 = 0.2934) was 763.94 ± 0.53 kg/m3, the mass density (328.15 K, 20000 kPa, x2 = 0.4055) was 786.78 ± 0.53 kg/m3 and the mass density (328.15 K, 20000 kPa, x2 = 0.502) was 810.36 ± 0.53 kg/m3. It also gave a mass density (328.15 K, 20000 kPa, x2 = 0.5476) of 822.99 ± 0.53 kg/m3, a mass density (328.15 K, 20000 kPa, x2 = 0.665) of 860.94 ± 0.54 kg/m3 and a mass density (328.15 K, 20000 kPa, x2 = 0.7101) of 877.85 ± 0.54 kg/m3. The mass density (328.15 K, 20000 kPa, x2 = 0.7993) was 916.93 ± 0.55 kg/m3, the mass density (328.15 K, 20000 kPa, x2 = 0.9062) was 975.83 ± 0.57 kg/m3 and the mass density (328.15 K, 30000 kPa, x2 = 0.0676) was 735.12 ± 0.59 kg/m3. For the same compound, the mass density (328.15 K, 30000 kPa, x2 = 0.2303) was 760.25 ± 0.57 kg/m3, the mass density (328.15 K, 30000 kPa, x2 = 0.2934) was 771.85 ± 0.57 kg/m3 and the mass density (328.15 K, 30000 kPa, x2 = 0.4055) was 794.98 ± 0.56 kg/m3. For the same compound, the mass density (328.15 K, 30000 kPa, x2 = 0.502) was 818.78 ± 0.56 kg/m3, the mass density (328.15 K, 30000 kPa, x2 = 0.5476) was 831.5 ± 0.55 kg/m3 and the mass density (328.15 K, 30000 kPa, x2 = 0.665) was 869.79 ± 0.55 kg/m3. It also gave a mass density (328.15 K, 30000 kPa, x2 = 0.7101) of 886.87 ± 0.55 kg/m3, a mass density (328.15 K, 30000 kPa, x2 = 0.7993) of 926.1 ± 0.56 kg/m3 and a mass density (328.15 K, 30000 kPa, x2 = 0.9062) of 985.17 ± 0.58 kg/m3. For the same compound, the mass density (328.15 K, 40000 kPa, x2 = 0.0676) was 741.93 ± 0.65 kg/m3, the mass density (328.15 K, 40000 kPa, x2 = 0.2303) was 767.41 ± 0.63 kg/m3 and the mass density (328.15 K, 40000 kPa, x2 = 0.2934) was 779.13 ± 0.62 kg/m3. For the same compound, the mass density (328.15 K, 40000 kPa, x2 = 0.4055) was 802.5 ± 0.6 kg/m3, the mass density (328.15 K, 40000 kPa, x2 = 0.502) was 826.54 ± 0.59 kg/m3 and the mass density (328.15 K, 40000 kPa, x2 = 0.5476) was 839.36 ± 0.58 kg/m3. It also gave a mass density (328.15 K, 40000 kPa, x2 = 0.665) of 877.9 ± 0.57 kg/m3, a mass density (328.15 K, 40000 kPa, x2 = 0.7101) of 895.22 ± 0.56 kg/m3 and a mass density (328.15 K, 40000 kPa, x2 = 0.7993) of 934.48 ± 0.56 kg/m3. The mass density (328.15 K, 40000 kPa, x2 = 0.9062) was 993.79 ± 0.58 kg/m3.
